pIC50, pKi: −log10 of the molar value.
Columns and labels:
Cathepsin G = molecular target: T1, Cathepsin G (Homo sapiens, UniProt P08311); assay type: tissue-based; conditions: neutrophil;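 note: inhibition of Cathepsin G enzyme activity, tested on an AMC-conjugated peptide substrate; in other assays of this panel Not Active means under 50% inhibition at 10 µM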
T1 sequence (P08311 whole entry): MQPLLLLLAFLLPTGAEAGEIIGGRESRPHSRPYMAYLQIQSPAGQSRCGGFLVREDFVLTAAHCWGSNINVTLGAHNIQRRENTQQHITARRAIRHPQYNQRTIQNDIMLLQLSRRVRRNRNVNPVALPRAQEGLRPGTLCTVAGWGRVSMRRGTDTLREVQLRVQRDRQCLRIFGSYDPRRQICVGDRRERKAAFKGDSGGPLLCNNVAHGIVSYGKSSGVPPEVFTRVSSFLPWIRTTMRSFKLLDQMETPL

Carbonic anhydrase 2 = Carbonic anhydrase 2 (Homo sapiens, UniProt P00918); test: DRUGMATRIX: Carbonic Anhydrase II enzyme inhibition (substrate: 4-Nitrophenyl acetate (4-NPA)); assay type: tissue-based, Erythrocyte; conditions: erythrocyte; Not Active = under 50% inhibition at 10 µM
Glucocorticoid receptor = molecular target: T2, Glucocorticoid receptor (Homo sapiens, UniProt P04150); conditions: hela s3; note: in other assays of this panel Not Active means under 50% inhibition at 10 µM
T2 sequence (P04150 whole entry): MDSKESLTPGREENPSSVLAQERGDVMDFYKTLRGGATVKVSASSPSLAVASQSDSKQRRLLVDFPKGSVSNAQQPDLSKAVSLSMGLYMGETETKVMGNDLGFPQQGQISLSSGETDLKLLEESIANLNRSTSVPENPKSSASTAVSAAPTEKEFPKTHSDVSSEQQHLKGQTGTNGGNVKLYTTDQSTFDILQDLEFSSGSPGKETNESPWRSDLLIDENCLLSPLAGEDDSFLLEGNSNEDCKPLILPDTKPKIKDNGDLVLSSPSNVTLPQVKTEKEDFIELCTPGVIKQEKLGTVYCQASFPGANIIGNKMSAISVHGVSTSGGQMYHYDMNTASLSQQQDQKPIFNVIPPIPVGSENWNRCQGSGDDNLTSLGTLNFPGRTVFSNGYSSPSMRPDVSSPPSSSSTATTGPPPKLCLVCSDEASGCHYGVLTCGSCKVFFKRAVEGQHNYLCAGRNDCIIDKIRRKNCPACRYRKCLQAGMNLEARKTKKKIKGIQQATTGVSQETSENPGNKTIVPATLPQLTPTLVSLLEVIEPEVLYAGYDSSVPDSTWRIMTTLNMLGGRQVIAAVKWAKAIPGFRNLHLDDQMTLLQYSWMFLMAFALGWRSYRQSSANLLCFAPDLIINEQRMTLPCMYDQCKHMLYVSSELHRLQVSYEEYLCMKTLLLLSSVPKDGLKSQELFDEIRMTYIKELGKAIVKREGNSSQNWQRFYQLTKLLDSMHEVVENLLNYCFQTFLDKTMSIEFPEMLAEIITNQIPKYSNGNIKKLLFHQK

[1] = molecular target: T3, Alpha-2A adrenergic receptor (Homo sapiens, UniProt P08913); assay type: cell membranes, Sf9, Membrane; conditions: for IC50: sf9; for all read-outs here: in other assays of this panel Not Active means under 50% inhibition at 10 µM
T3 sequence (P08913 whole entry): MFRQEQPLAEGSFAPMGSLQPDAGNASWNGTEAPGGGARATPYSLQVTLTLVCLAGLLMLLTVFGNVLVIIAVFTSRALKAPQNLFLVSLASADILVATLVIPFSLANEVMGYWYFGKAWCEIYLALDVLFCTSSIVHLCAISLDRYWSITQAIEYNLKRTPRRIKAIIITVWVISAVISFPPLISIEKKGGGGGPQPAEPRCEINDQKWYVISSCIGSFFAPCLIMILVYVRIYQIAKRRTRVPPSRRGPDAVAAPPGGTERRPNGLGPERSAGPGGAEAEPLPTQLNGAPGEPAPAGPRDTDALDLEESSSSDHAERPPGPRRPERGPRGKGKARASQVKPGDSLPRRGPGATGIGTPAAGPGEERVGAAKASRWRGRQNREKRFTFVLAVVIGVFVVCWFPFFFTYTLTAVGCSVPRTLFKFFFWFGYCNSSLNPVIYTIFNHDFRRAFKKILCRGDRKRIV

[2] = DRUGMATRIX: Sigma2 radioligand binding (ligand: [3H] Ifenprodil); assay type: cell membranes, Rattus norvegicus, Wistar, Brain, Membrane; conditions: Not Active = under 50% inhibition at 10 µM
[3] = DRUGMATRIX: Purinergic P2X radioligand binding (ligand: [3H] alpha, beta-Methylene-ATP); assay type: cell membranes, Oryctolagus cuniculus, New Zealand albino, Urinary bladder, Membrane; conditions: Not Active = under 50% inhibition at 10 µM
[4] = molecular target: Epidermal growth factor receptor (Homo sapiens, UniProt P00533); test: DRUGMATRIX: Protein Tyrosine Kinase, EGF Receptor enzyme inhibition (substrate: Poly(Glu:Tyr)); assay type: cell-based, Insect cells; conditions: insect cells; Not Active = under 50% inhibition at 10 µM
Chain of Epidermal growth factor receptor (P00533 whole entry): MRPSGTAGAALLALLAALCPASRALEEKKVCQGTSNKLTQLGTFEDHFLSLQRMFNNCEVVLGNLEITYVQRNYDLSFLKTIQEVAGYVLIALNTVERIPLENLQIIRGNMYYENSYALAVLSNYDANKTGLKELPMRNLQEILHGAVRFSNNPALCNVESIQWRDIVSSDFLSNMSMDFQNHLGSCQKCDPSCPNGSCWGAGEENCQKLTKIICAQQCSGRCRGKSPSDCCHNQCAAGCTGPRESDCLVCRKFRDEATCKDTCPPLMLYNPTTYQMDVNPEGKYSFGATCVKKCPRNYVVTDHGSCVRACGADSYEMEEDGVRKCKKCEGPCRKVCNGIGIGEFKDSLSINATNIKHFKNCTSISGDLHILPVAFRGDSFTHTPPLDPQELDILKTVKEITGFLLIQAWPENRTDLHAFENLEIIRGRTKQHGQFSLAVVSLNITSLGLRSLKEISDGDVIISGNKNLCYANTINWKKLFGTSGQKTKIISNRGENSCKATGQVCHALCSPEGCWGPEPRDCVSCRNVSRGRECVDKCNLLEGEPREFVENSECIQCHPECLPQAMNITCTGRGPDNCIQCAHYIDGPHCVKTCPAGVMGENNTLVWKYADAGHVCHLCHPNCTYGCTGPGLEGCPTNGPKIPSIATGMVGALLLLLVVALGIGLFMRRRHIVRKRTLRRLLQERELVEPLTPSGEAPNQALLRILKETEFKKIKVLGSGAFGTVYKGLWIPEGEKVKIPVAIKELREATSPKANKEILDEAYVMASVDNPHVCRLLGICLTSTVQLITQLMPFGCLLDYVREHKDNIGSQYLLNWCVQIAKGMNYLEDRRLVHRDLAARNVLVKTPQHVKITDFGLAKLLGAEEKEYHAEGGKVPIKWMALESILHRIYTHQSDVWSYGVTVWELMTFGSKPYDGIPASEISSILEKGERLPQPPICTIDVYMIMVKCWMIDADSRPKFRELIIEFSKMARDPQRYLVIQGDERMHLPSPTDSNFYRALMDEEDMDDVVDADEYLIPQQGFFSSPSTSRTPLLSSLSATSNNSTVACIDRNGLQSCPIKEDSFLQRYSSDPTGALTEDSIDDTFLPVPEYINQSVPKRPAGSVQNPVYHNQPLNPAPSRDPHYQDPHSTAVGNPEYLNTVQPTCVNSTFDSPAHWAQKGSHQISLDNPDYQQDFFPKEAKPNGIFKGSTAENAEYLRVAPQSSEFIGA

[5] = molecular target: Sodium-dependent dopamine transporter (Homo sapiens, UniProt Q01959); test: DRUGMATRIX: Dopamine Transporter radioligand binding (ligand: [125I] RTI-55); assay type: cell membranes, CHO-K1, Membrane; conditions: cho-k1; Not Active = under 50% inhibition at 10 µM
Chain of Sodium-dependent dopamine transporter (Q01959 whole entry): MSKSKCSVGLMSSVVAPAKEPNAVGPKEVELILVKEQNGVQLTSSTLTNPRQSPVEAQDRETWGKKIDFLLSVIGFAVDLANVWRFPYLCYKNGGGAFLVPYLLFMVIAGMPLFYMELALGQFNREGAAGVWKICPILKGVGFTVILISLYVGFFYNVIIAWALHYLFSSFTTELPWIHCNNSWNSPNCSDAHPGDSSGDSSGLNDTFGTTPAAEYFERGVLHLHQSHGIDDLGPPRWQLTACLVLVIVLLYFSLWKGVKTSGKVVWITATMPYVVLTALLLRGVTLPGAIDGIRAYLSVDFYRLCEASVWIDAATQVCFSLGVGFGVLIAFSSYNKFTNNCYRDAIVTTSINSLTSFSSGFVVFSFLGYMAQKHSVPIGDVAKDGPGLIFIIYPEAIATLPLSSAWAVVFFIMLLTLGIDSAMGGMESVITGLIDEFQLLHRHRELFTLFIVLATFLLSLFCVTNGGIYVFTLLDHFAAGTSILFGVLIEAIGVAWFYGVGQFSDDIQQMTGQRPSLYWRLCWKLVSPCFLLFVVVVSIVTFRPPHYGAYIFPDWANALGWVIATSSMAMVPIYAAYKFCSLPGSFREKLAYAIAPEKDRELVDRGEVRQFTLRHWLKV

Adenosine receptor A1 = molecular target: T4, Adenosine receptor A1 (Homo sapiens, UniProt P30542); assay type: cell membranes, CHO, Membrane; conditions: cho;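 note: radioligand binding assay at the adenosine A1 receptor, with DPCPX serving as the labelled ligand; in other assays of this panel Not Active means under 50% inhibition at 10 µM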
T4 sequence (P30542 whole entry): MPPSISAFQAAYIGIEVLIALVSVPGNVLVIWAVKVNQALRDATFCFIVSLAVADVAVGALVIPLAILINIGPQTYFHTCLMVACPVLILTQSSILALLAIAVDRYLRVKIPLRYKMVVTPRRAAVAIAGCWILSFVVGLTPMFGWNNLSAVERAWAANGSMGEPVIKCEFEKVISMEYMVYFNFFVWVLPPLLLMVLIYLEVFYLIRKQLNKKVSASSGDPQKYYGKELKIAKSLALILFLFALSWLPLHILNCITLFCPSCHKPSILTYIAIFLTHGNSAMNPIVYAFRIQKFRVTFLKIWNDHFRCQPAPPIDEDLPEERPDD

[6] = DRUGMATRIX: GABAA, Chloride Channel, TBOB radioligand binding (ligand: [3H] TBOB); assay type: cell membranes, Rattus norvegicus, Wistar, Cerebral cortex, Membrane; conditions: Not Active = under 50% inhibition at 10 µM
Cannabinoid receptor 1 = Cannabinoid receptor 1 (Homo sapiens, UniProt P21554); assay type: cell membranes, Membrane; conditions: chem-1; note: in other assays of this panel Not Active means under 50% inhibition at 10 µM
Chain of Cannabinoid receptor 1 (P21554 whole entry): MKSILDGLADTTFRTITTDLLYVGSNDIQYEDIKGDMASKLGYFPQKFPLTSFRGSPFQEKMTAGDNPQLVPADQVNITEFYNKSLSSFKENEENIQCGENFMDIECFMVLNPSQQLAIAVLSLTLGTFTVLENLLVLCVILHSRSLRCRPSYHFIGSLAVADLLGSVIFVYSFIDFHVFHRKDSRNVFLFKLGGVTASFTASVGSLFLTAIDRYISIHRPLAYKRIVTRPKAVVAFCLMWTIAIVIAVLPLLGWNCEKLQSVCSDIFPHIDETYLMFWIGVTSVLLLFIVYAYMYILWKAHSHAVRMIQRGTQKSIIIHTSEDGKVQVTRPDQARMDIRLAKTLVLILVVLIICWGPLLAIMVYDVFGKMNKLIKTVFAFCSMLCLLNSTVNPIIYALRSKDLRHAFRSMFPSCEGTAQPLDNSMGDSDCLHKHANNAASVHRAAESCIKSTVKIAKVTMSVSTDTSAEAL

[7] = molecular target: 5-hydroxytryptamine receptor 6 (Homo sapiens, UniProt P50406); assay type: cell membranes, HeLa, Membrane; conditions: for IC50: hela
Chain of 5-hydroxytryptamine receptor 6 (P50406 whole entry): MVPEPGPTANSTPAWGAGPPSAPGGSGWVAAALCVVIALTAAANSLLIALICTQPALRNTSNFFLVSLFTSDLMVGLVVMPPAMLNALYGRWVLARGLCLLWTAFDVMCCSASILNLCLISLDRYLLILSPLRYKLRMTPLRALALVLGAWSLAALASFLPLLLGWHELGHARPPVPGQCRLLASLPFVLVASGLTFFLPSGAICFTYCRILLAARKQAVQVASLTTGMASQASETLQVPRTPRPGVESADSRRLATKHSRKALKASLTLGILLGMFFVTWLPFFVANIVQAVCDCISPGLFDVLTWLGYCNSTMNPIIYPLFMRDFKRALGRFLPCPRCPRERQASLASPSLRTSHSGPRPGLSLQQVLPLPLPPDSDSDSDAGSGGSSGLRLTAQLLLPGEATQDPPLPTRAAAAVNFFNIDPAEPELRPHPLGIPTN

Substance-P receptor = Substance-P receptor (Homo sapiens, UniProt P25103); assay type: cell membranes, CHO, Membrane; conditions: cho; note: in other assays of this panel Not Active means under 50% inhibition at 10 µM
Chain of Substance-P receptor (P25103 whole entry): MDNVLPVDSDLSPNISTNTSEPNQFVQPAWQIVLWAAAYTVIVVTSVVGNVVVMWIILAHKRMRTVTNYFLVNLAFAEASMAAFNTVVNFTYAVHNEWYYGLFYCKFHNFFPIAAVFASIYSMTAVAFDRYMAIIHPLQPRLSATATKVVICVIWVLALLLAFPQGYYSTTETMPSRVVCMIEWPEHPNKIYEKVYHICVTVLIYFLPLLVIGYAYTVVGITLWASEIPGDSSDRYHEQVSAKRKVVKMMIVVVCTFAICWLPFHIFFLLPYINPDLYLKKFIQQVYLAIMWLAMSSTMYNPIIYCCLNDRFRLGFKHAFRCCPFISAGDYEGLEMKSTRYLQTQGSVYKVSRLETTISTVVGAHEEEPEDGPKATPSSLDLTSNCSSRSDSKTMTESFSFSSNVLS

[8] = molecular target: C-C chemokine receptor type 5 (Homo sapiens, UniProt P51681); assay type: cell membranes, Membrane; conditions: hek293; note: in other assays of this panel Not Active means under 50% inhibition at 10 µM
Chain of C-C chemokine receptor type 5 (P51681 whole entry): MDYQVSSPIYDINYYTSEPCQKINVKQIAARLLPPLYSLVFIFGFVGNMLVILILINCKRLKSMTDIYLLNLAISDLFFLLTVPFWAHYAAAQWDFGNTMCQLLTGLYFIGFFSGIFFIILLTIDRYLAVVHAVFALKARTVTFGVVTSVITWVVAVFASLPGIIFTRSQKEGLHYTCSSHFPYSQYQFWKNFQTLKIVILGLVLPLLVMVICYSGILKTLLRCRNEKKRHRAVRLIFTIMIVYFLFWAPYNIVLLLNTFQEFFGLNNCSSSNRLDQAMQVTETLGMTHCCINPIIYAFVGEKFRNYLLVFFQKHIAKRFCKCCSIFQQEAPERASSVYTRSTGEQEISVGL

[9] = DRUGMATRIX: Imidazoline I2, Central radioligand binding (ligand: [3H] Idazoxan); assay type: cell membranes, Rattus norvegicus, Wistar, Cerebral cortex, Membrane; conditions: Not Active = under 50% inhibition at 10 µM

COc1ccc([C@@H]2Sc3ccccc3N(CCN(C)C)C(=O)[C@@H]2OC(C)=O)cc1 [DILTIAZEM]
Not Active: IC50 (Cathepsin G) | IC50 (Carbonic anhydrase 2) | IC50 (Glucocorticoid receptor) | IC50 [1] | IC50 [2] | Ki [2] | IC50 [3] | Ki [3] | IC50 [4] | IC50 [5] | IC50 (Adenosine receptor A1) | IC50 [6] | Ki [6] | IC50 (Cannabinoid receptor 1) | IC50 [7] | IC50 (Substance-P receptor) | IC50 [8] | IC50 [9] | Ki [9]

CCc1ccc(C(=O)C(C)CN2CCCCC2)cc1 (centres undefined) [EPERISONE]
Not Active: IC50 (Cathepsin G) | IC50 (Carbonic anhydrase 2) | IC50 (Glucocorticoid receptor) | IC50 [1] | IC50 [3] | Ki [3] | IC50 [4] | IC50 [5] | IC50 (Adenosine receptor A1) | IC50 [6] | Ki [6] | IC50 (Cannabinoid receptor 1) | IC50 [7] | IC50 (Substance-P receptor) | IC50 [8] | IC50 [9] | Ki [9]
6.18: pKi ([2]; read-out: Ki)
5.97: pIC50 ([2]; read-out: IC50)

C=C1CC[C@H](O)C/C1=C/C=C1\CCC[C@]2(C)[C@@H]([C@H](C)/C=C/[C@H](C)C(C)C)CC[C@@H]12 [ERGOCALCIFEROL]
Not Active: IC50 (Cathepsin G) | IC50 (Carbonic anhydrase 2) | IC50 (Glucocorticoid receptor) | IC50 [1] | IC50 [2] | Ki [2] | IC50 [3] | Ki [3] | IC50 [4] | IC50 [5] | IC50 (Adenosine receptor A1) | IC50 [6] | Ki [6] | IC50 (Cannabinoid receptor 1) | IC50 [7] | IC50 (Substance-P receptor) | IC50 [8] | IC50 [9] | Ki [9]

CN1C[C@H](C(=O)N[C@]2(C)O[C@@]3(O)[C@@H]4CCCN4C(=O)[C@H](Cc4ccccc4)N3C2=O)C=C2c3cccc4[nH]cc(c34)C[C@H]21 [ERGOTAMINE]
8.69: pIC50 ([7]; read-out: IC50)
8.61: pKi ([9]; read-out: Ki)
9.10: pKi ([1]; read-out: Ki)
9.02: pKi ([7]; read-out: Ki)
Not Active: IC50 (Cathepsin G) | IC50 (Carbonic anhydrase 2) | IC50 (Glucocorticoid receptor) | IC50 [2] | Ki [2] | IC50 [3] | Ki [3] | IC50 [4] | IC50 [5] | IC50 (Adenosine receptor A1) | IC50 [6] | Ki [6] | IC50 (Cannabinoid receptor 1) | IC50 (Substance-P receptor) | IC50 [8]
8.67: pIC50 ([1]; read-out: IC50)
8.44: pIC50 ([9]; read-out: IC50)

Cc1c(-c2ccccc2)oc2c(C(=O)OCCN3CCCCC3)cccc2c1=O [FLAVOXATE]
Not Active: IC50 (Cathepsin G) | IC50 (Carbonic anhydrase 2) | IC50 (Glucocorticoid receptor) | IC50 [1] | IC50 [2] | Ki [2] | IC50 [3] | Ki [3] | IC50 [4] | IC50 [5] | IC50 (Adenosine receptor A1) | IC50 [6] | Ki [6] | IC50 (Cannabinoid receptor 1) | IC50 [7] | IC50 (Substance-P receptor) | IC50 [8] | IC50 [9] | Ki [9]

Nc1nc(=O)[nH]cc1F [FLUCYTOSINE]
Not Active: IC50 (Cathepsin G) | IC50 (Carbonic anhydrase 2) | IC50 (Glucocorticoid receptor) | IC50 [1] | IC50 [2] | Ki [2] | IC50 [3] | Ki [3] | IC50 [4] | IC50 [5] | IC50 (Adenosine receptor A1) | IC50 [6] | Ki [6] | IC50 (Cannabinoid receptor 1) | IC50 [7] | IC50 (Substance-P receptor) | IC50 [8] | IC50 [9] | Ki [9]

O=C1OC2(c3ccc(O)cc3Oc3cc(O)ccc32)c2ccccc21 [FLUORESCEIN]
Not Active: IC50 (Cathepsin G) | IC50 (Carbonic anhydrase 2) | IC50 (Glucocorticoid receptor) | IC50 [1] | IC50 [2] | Ki [2] | IC50 [3] | Ki [3] | IC50 [4] | IC50 [5] | IC50 (Adenosine receptor A1) | IC50 [6] | Ki [6] | IC50 (Cannabinoid receptor 1) | IC50 [7] | IC50 (Substance-P receptor) | IC50 [8] | IC50 [9] | Ki [9]

O=c1[nH]cc(F)c(=O)[nH]1 [FLUOROURACIL]
Not Active: IC50 (Cathepsin G) | IC50 (Carbonic anhydrase 2) | IC50 (Glucocorticoid receptor) | IC50 [1] | IC50 [2] | Ki [2] | IC50 [3] | Ki [3] | IC50 [4] | IC50 [5] | IC50 (Adenosine receptor A1) | IC50 [6] | Ki [6] | IC50 (Cannabinoid receptor 1) | IC50 [7] | IC50 (Substance-P receptor) | IC50 [8] | IC50 [9] | Ki [9]
